Experimental data: patent publication US11447517B2, “Galactoside inhibitor of galectins” (GALECTO BIOTECH AB, priority 2018, dated 2022)

Target: galectin-3 (Homo sapiens (Human), UniProt P17931)
Test: Fluorescence anisotropy assay, inhibition of galectin / fluorescein tagged saccharide probe interaction
Assay type: binding
Procedure: Evaluation of Kd Values The affinity of Example 1-71 for galectins were determined by a fluorescence anisotropy assay where the compound was used as an inhibitor of the interaction between galectin and a fluorescein tagged saccharide probe as described Sörme, P., Kahl-Knutsson, B., Huflejt, M., Nilsson, U. J., and Leffler H. (2004) Fluorescence polarization as an analytical tool to evaluate galectin-ligand interactions. Anal. Biochem. 334: 36-47, (Sörme et al., 2004) and Monovalent interactions of Galectin-1 By Salomonsson, Emma; Larumbe, Amaia; Tejler, Johan; Tullberg, Erik; Rydberg, Hanna; Sundin, Anders; Khabut, Areej; Frejd, Torbjorn; Lobsanov, Yuri D.; Rini, James M.; et al, From Biochemistry (2010), 49(44), 9518-9532, (Salomonsson et al., 2010). […] 100 nM albumin was included as a carrier to prevent protein loss at such low concentration of galectin.

Chain of galectin-3 (P17931 whole entry): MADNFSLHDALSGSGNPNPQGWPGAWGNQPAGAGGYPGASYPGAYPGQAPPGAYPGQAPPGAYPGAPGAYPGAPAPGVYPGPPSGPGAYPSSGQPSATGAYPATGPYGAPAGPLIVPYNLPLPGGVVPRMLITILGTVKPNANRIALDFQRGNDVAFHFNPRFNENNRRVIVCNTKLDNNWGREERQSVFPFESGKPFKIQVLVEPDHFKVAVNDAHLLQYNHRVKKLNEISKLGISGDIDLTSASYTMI

Row | Compound | Kd [nM]
1 | CCO[C@@H]1[C@@H](n2cc(-c3cc(F)c(F)c(F)c3)nn2)[C@@H](O)[C@@H](CO)O[C@@H]1Sc1cncc(Br)c1 [Example 17, 5-Bromopyridin-3-yl 3-deoxy-3-[4-(3,4,5-trifluorophenyl)-1H-1,2,3-triazol-1-yl]-2-O-ethyl-1-thio-α-D-galactopyranoside] | 74
2 | OC[C@H]1O[C@H](Sc2cncc(Br)c2)[C@H](OCC(O)C(F)(F)F)[C@@H](n2cc(-c3cc(F)c(F)c(F)c3)nn2)[C@H]1O (stereo partly drawn) [Example 5, 5-Bromopyridin-3-yl 3-deoxy-3-[4-(3,4,5-trifluorophenyl)-1H-1,2,3-triazol-1-yl]-2-O-(1,1,1-trifluoro-2-hydroxyprop-3-yl)-1-thio-α-D-galactopyranoside] | 82
3 | CO[C@@H]1[C@@H](n2cc(-c3ccc(Cl)c(C)n3)nn2)[C@@H](O)[C@@H](CO)O[C@@H]1Sc1cncc(Cl)c1 [Example 44, 5-Chloropyridin-3-yl 3-[4-(5-chloro-6-methylpyridin-2-yl)-1H-1,2,3-triazol-1-yl]-3-deoxy-2-O-methyl-1-thio-α-D-galactopyranoside] | 880
4 | CNCCO[C@@H]1[C@@H](n2cc(-c3cc(F)c(F)c(F)c3)nn2)[C@@H](O)[C@@H](CO)O[C@@H]1Sc1cncc(Br)c1 [Example 20, 5-Bromopyridin-3-yl 3-deoxy-3-[4-(3,4,5-trifluorophenyl)-1H-1,2,3-triazol-1-yl]-2-O-[2-(methylamino)ethyl]-1-thio-α-D-galactopyranoside] | 71
5 | CO[C@@H]1[C@@H](n2cc(-c3cc(F)c(Cl)c(F)c3)nn2)[C@@H](O)[C@@H](CO)O[C@@H]1Sc1cnc(C(F)(F)F)c(C#N)c1 [Example 58, 5-Cyano-6-trifluoromethylpyridin-3-yl 3-[4-(4-chloro-3,5-difluorophenyl)-1H-1,2,3-triazol-1-yl]-3-deoxy-2-O-methyl-1-thio-α-D-galactopyranoside] | 190
6 | CCO[C@@H]1[C@@H](n2cc(-c3cc(F)c(F)c(F)c3)nn2)[C@@H](O)[C@@H](CO)O[C@@H]1Sc1cc(Br)ccc1C(=O)N1CCC1 [Example 65, 2-(N-azetidinyl-carbonyl)-5-bromophenyl 3-deoxy-3-[4-(3,4,5-trifluorophenyl)-1H-1,2,3-triazol-1-yl]-2-O-ethyl-1-thio-α-D-galactopyranoside] | 18

The remaining lines, values ahead:

Row | Kd [nM] | Compound
7 | 31 | CO[C@@H]1[C@@H](n2cc(-c3ccc(Cl)c(F)c3)nn2)[C@@H](O)[C@@H](CO)O[C@@H]1Sc1cc(Cl)cnc1C#N [Example 48, 5-Chloro-2-cyanopyridin-3-yl 3-[4-(4-chloro-3-fluorophenyl)-1H-1,2,3-triazol-1-yl]-3-deoxy-2-O-methyl-1-thio-α-D-galactopyranoside]
8 | 37 | COC1[C@@H](Sc2cc(Cl)c(C#N)nc2N2CC3(COC3)C2)OC(CO)[C@H](O)[C@@H]1n1cc(-c2cc(F)c(F)c(F)c2)nn1 (stereo partly drawn) [Example 23, 5-Chloro-6-cyano-2-{N-(2-oxa)-6-azaspiro[3.3]heptanyl}-pyridin-3-yl 3-deoxy-3-[4-(3,4,5-trifluorophenyl)-1H-1,2,3-triazol-1-yl]-2-O-methyl-1-thio-α-D-galactopyranoside]
9 | 34 | CO[C@@H]1[C@@H](n2cc(-c3cc(F)c(Cl)c(F)c3)nn2)[C@@H](O)[C@@H](CO)O[C@@H]1Sc1cc(Cl)cnc1C#N [Example 47, 5-Chloro-2-cyanopyridin-3-yl 3-[4-(4-chloro-3,5-difluorophenyl)-1H-1,2,3-triazol-1-yl]-3-deoxy-2-O-methyl-1-thio-α-D-galactopyranoside]
10 | 24 | CO[C@@H]1[C@@H](n2cc(-c3cc(F)c(F)c(F)c3)nn2)[C@@H](O)[C@@H](CO)O[C@@H]1Sc1cc(Cl)cnc1-c1ccccn1 [Example 25, 5-Chloro-2-(pyridin-2-yl)pyridin-3-yl 3-deoxy-3-[4-(3,4,5-trifluorophenyl)-1H-1,2,3-triazol-1-yl]-2-O-methyl-1-thio-α-D-galactopyranoside]
